Data reported in patent US10457710B2, “Antimicrobial peptides, their variants and uses” (priority 2015, dated 2019).
Where a SMILES comes first, the peptide text is derived from it. [ ]: non-standard residue; d: D form.

Columns and labels:
Format in all cases: cell-based
[1] = system: clinical strains of Acinetobacter baumannii; experiment: MIC, microdilution, clinical strains; design: unit: μg/ml; conditions: 0.02% BSA, 0.2% acetic acid
Description: Minimum inhibition concetrations (MICs) were determined against Escherichia coli (ATCC 25922), Staphylococcus aureus (ATCC 25923), Klebsiella pneumoniae (ATCC 10031) and Pseudomonas aeruginosa (ATCC 27853). Also clinical strains of E. coli, K. pneumoniae, E. cloacae, P. aeruginosa, Serratia marcescens, Proteus mirabilis, S. pneumoniae, Acinetobacter baumannii, A. johnsonii and S. aureus were used for MICs assays. Additionally, clinical strains of yeast including Candida albicans, C. glabrata, C. parapsilosis and C. quillermondiae were used. The susceptibility of these microorganisms to Chain peptides were determined using micro broth dilution assay. Colonies of the respective microorganism from Muller Hinton (MH) agar plates incubated overnight were suspended in MH broth media and final concentration of microorganism was adjusted to 5.0×10^5 cfu/ml. An aliquot of 10 μl of each Chain peptide, or gentamicin, tetracycline as reference antibiotics were added in differing concentrations along with 90 μl of bacterial suspension to 96 well polypropylene plates and incubated at 37° C. for 20 to 24 hours. Concentrations of Chain peptides and reference antibiotics ranged from 0.125 to 128 μg/ml and the MICs were recorded as the lowest concentration with no visual growth of bacteria. Similarly, antifungal MICs were tested in Potato dextrose broth.
Clinical strains of yeasts including Candida albicans, C. glabrata, C. parapsilosis and C. quillermondiae were also tested with the 12 Chain peptides. The minimum inhibitory concentration (MICs) varied between these peptides and are presented in Tables 4a, 4b, 4c and 5a, 5b, 5c. Peptides Chain 105, 201 and 308 are broad spectrum antimicrobials with MICs between 0.5-32 μg/ml against all the bacteria and yeasts tested, except Serratia marcescens and Proteus mirabilis, against which the MICs were between 64-128 μg/ml. Peptide Chain 306 has narrow spectrum activity against E. coli at 1 μg/ml and for the rest of the bacterial strains at >32 μg/ml (FIG. 10c).

C. parapsilosis = experiment: MIC, clinical yeast strains; conditions: D-form peptide, concentrations tested 0.125 to 128 μg/ml
Outline: (§1)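 Broth microdilution in Potato dextrose broth, inoculum 5.0×10^5 cfu/ml, peptide 0.125–128 μg/ml, incubated at 37 °C for 20–24 h; MIC taken as lowest concentration without visible growth. A. johnsonii clinical strains were tested the same way in Mueller Hinton broth.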

Candida albicans = experiment: MIC, clinical yeast strains; conditions: D-form peptide, concentrations tested 0.125 to 128 μg/ml
Outline: as §1

C. glabrata = experiment: MIC, clinical yeast strains; conditions: D-form peptide, concentrations tested 0.125 to 128 μg/ml
Outline: as §1

C. quillermondiae = experiment: MIC, clinical yeast strains; conditions: clinical yeast strain 1; D-form peptide; concentrations tested 0.125 to 128 μg/ml
Outline: as §1

[2] = system: clinical strains of E. coli; experiment: MIC, microdilution, clinical strains; conditions: microdilution, Muller Hinton broth-cation adjusted, 0.02% BSA, 0.2% acetic acid
Outline: (§2)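 Broth microdilution with inocula adjusted to 5.0×10^5 cfu/ml; peptides tested at 0.125 to 128 μg/ml and incubated at 37° C for 20 to 24 hours. Bacteria were grown in Mueller Hinton broth, yeasts in potato dextrose broth. MIC was the lowest concentration showing no visible growth.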

[3] = system: clinical strains of E. cloacae; experiment: MIC, microdilution, clinical strains; conditions: 0.02% BSA, 0.2% acetic acid
Outline: as §2

[4] = system: clinical strains of S. aureus; experiment: MIC, microdilution, clinical strains; conditions: 0.02% BSA, 0.2% acetic acid
Outline: as §2

[5] = system: clinical strains of K. pneumoniae; experiment: MIC, microdilution, clinical strains; conditions: 0.02% BSA, 0.2% acetic acid
Outline: as §2

[6] = system: clinical strains of S. pneumoniae; experiment: MIC, microdilution, clinical strains; conditions: 0.02% BSA, 0.2% acetic acid
Outline: as §2

[7] = system: clinical strains of Serratia marcescens; experiment: MIC, microdilution, clinical strains; conditions: 0.02% BSA, 0.2% acetic acid
Outline: as §2

[8] = system: clinical strains of P. aeruginosa; experiment: MIC, microdilution, clinical strains; conditions: 0.02% BSA, 0.2% acetic acid
Outline: as §2

[9] = system: clinical strains of Proteus mirabilis; experiment: MIC, microdilution, clinical strains; conditions: 0.02% BSA, 0.2% acetic acid
Outline: as §2

CC[C@@H](C)[C@@H](NC(=O)[C@@H](Cc1c[nH]c2ccccc12)NC(=O)[C@H](N)CCCCN)C(=O)N[C@@H](C(=O)N[C@H](Cc1c[nH]c2ccccc12)C(=O)N[C@H](CCCNC(=N)N)C(=O)N[C@H](Cc1c[nH]c2ccccc12)C(=O)N[C@H](CCCNC(=N)N)C(=O)N[C@H](Cc1ccccc1)C(=O)N[C@H](CCCCN)C(=O)N[C@H](CCCNC(=N)N)C(=O)O)C(C)C [Chain201D] (H-[dK][dW][dI][dV][dW][dR][dW][dR][dF][dK][dR]-OH)
8: Minimum inhibitory concentration, C. parapsilosis strain 1 (C. parapsilosis; clinical yeast strain 1) | Minimum inhibitory concentration, C. parapsilosis strain 2 (C. parapsilosis; clinical yeast strain 2) | Minimum inhibitory concentration, C. parapsilosis strain 3 (C. parapsilosis; clinical yeast strain 3) | Minimum inhibitory concentration, C. parapsilosis strain 4 (C. parapsilosis; clinical yeast strain 4) | Minimum inhibitory concentration, Candida albicans strain 2 (Candida albicans; clinical yeast strain 2) | Minimum inhibitory concentration, Candida albicans strain 3 (Candida albicans; clinical yeast strain 3) | Minimum inhibitory concentration, Candida albicans strain 5 (Candida albicans; clinical yeast strain 5) | Minimum inhibitory concentration, C. glabrata strain 1 (C. glabrata; clinical yeast strain 1) | Minimum inhibitory concentration, C. glabrata strain 2 (C. glabrata; clinical yeast strain 2) | Minimum inhibitory concentration, C. glabrata strain 3 (C. glabrata; clinical yeast strain 3) | Minimum inhibitory concentration, C. quillermondiae strain 1 (C. quillermondiae) | Minimum inhibitory concentration ([6]; Streptococcus pneumoniae strain 1, Muller Hinton broth-cation adjusted)
4: Minimum inhibitory concentration ([1]; Acinetobacter baumannii strain 1, Muller Hinton broth-cation adjusted) | Minimum inhibitory concentration ([1]; Acinetobacter baumannii strain 2, Muller Hinton broth-cation adjusted) | Minimum inhibitory concentration ([1]; Acinetobacter baumannii strain 3, Muller Hinton broth-cation adjusted) | Minimum inhibitory concentration ([1]; Acinetobacter baumannii strain 4, Muller Hinton broth-cation adjusted) | Minimum inhibitory concentration ([1]; Acinetobacter baumannii strain 5, Muller Hinton broth-cation adjusted) | Minimum inhibitory concentration ([5]; Klebsiella pneumoniae strain 3, Muller Hinton broth-cation adjusted) | Minimum inhibitory concentration ([5]; Klebsiella pneumoniae strain 4, Muller Hinton broth-cation adjusted) | Minimum inhibitory concentration ([6]; Streptococcus pneumoniae strain 2, Muller Hinton broth-cation adjusted) | Minimum inhibitory concentration ([6]; Streptococcus pneumoniae strain 4, Muller Hinton broth-cation adjusted) | Minimum inhibitory concentration ([6]; Streptococcus pneumoniae strain 5, Muller Hinton broth-cation adjusted) | Minimum inhibitory concentration ([8]; Pseudomonas aeruginosa strain 1, Muller Hinton broth-cation adjusted) | Minimum inhibitory concentration ([8]; Pseudomonas aeruginosa strain 2, Muller Hinton broth-cation adjusted) | Minimum inhibitory concentration ([8]; Pseudomonas aeruginosa strain 3, Muller Hinton broth-cation adjusted)
>128: Minimum inhibitory concentration ([9]; Proteus mirabilis strain 1, Muller Hinton broth-cation adjusted) | Minimum inhibitory concentration ([9]; Proteus mirabilis strain 4, Muller Hinton broth-cation adjusted) | Minimum inhibitory concentration ([9]; Proteus mirabilis strain 5, Muller Hinton broth-cation adjusted)
64: Minimum inhibitory concentration, C. glabrata strain 4 (C. glabrata; clinical yeast strain 4) | Minimum inhibitory concentration ([7]; Serratia marcescens strain 1, Muller Hinton broth-cation adjusted) | Minimum inhibitory concentration ([7]; Serratia marcescens strain 2, Muller Hinton broth-cation adjusted) | Minimum inhibitory concentration ([7]; Serratia marcescens strain 3, Muller Hinton broth-cation adjusted) | Minimum inhibitory concentration ([7]; Serratia marcescens strain 4, Muller Hinton broth-cation adjusted) | Minimum inhibitory concentration ([9]; Proteus mirabilis strain 3, Muller Hinton broth-cation adjusted)
32: Minimum inhibitory concentration ([9]; Proteus mirabilis strain 2, Muller Hinton broth-cation adjusted)
1: Minimum inhibitory concentration ([2]; Escherichia coli strain 2) | Minimum inhibitory concentration ([2]; Escherichia coli strain 3) | Minimum inhibitory concentration ([2]; Escherichia coli strain 4) | Minimum inhibitory concentration ([2]; Escherichia coli strain 5) | Minimum inhibitory concentration ([3]; Enterobacter cloacae strain 1, Muller Hinton broth-cation adjusted) | Minimum inhibitory concentration ([3]; Enterobacter cloacae strain 5, Muller Hinton broth-cation adjusted) | Minimum inhibitory concentration ([4]; Staphylococcus aureus strain 1, Muller Hinton broth-cation adjusted) | Minimum inhibitory concentration ([4]; Staphylococcus aureus strain 2, Muller Hinton broth-cation adjusted) | Minimum inhibitory concentration ([4]; Staphylococcus aureus strain 3, Muller Hinton broth-cation adjusted) | Minimum inhibitory concentration ([4]; Staphylococcus aureus strain 4, Muller Hinton broth-cation adjusted) | Minimum inhibitory concentration ([4]; Staphylococcus aureus strain 5, Muller Hinton broth-cation adjusted)
128: Minimum inhibitory concentration ([7]; Serratia marcescens strain 5, Muller Hinton broth-cation adjusted)
2: Minimum inhibitory concentration ([3]; Enterobacter cloacae strain 2, Muller Hinton broth-cation adjusted) | Minimum inhibitory concentration ([3]; Enterobacter cloacae strain 3, Muller Hinton broth-cation adjusted) | Minimum inhibitory concentration ([3]; Enterobacter cloacae strain 4, Muller Hinton broth-cation adjusted) | Minimum inhibitory concentration ([5]; Klebsiella pneumoniae strain 1, Muller Hinton broth-cation adjusted) | Minimum inhibitory concentration ([5]; Klebsiella pneumoniae strain 2, Muller Hinton broth-cation adjusted) | Minimum inhibitory concentration ([5]; Klebsiella pneumoniae strain 5, Muller Hinton broth-cation adjusted) | Minimum inhibitory concentration ([6]; Streptococcus pneumoniae strain 3, Muller Hinton broth-cation adjusted) | Minimum inhibitory concentration ([8]; Pseudomonas aeruginosa strain 4, Muller Hinton broth-cation adjusted) | Minimum inhibitory concentration ([8]; Pseudomonas aeruginosa strain 5, Muller Hinton broth-cation adjusted)
16: Minimum inhibitory concentration, Candida albicans strain 1 (Candida albicans; clinical yeast strain 1) | Minimum inhibitory concentration, Candida albicans strain 4 (Candida albicans; clinical yeast strain 4) | Minimum inhibitory concentration ([2]; Escherichia coli strain 1)
